Measured values as given in the supplement of paper PMC10307832.

What was measured:
Experiment in all cases: relative viability (nuclei count vs DMSO), 5 days (fraction); higher = more cells survive
EHT 1864 + Luminespib = compound: C1COCCN1CC2=CC(=O)C(=CO2)OCCCCCSC3=C4C=CC(=CC4=NC=C3)C(F)(F)F [EHT 1864] + CCNC(=O)c1noc(-c2cc(C(C)C)c(O)cc2O)c1-c1ccc(CN2CCOCC2)cc1 [Luminespib] (partner 0.01 µM)
Method in brief: (§1)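 Dosing by pin tool came one day after lung cancer cell lines were seeded in 1536-well plates, using either one drug or a fixed anchor-drug dose plus five library-drug doses (not always all listed) in √10 steps. After 5 days, nuclei were counted on 4× images. Relative viability is treated-well nuclei count divided by vehicle-well nuclei count, and values are medians of duplicate plates.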

EHT 1864 + OSI-027 = compound: C1COCCN1CC2=CC(=O)C(=CO2)OCCCCCSC3=C4C=CC(=CC4=NC=C3)C(F)(F)F [EHT 1864] + COc1cccc2cc(-c3nc([C@H]4CC[C@H](C(=O)O)CC4)n4ncnc(N)c34)[nH]c12 [OSI-027] (partner 0.5 µM)
Method in brief: as §1

EHT 1864 + Lapatinib = compound: C1COCCN1CC2=CC(=O)C(=CO2)OCCCCCSC3=C4C=CC(=CC4=NC=C3)C(F)(F)F [EHT 1864] + CS(=O)(=O)CCNCc1ccc(-c2ccc3ncnc(Nc4ccc(OCc5cccc(F)c5)c(Cl)c4)c3c2)o1 [Lapatinib] (partner 2 µM)
Method in brief: as §1

EHT 1864 + Linsitinib = compound: C1COCCN1CC2=CC(=O)C(=CO2)OCCCCCSC3=C4C=CC(=CC4=NC=C3)C(F)(F)F [EHT 1864] + C[C@]1(O)C[C@@H](c2nc(-c3ccc4ccc(-c5ccccc5)nc4c3)c3c(N)nccn32)C1 [Linsitinib] (partner 1 µM)
Method in brief: as §1

Cell Line | relative viability (EHT 1864 + Luminespib; first compound 0.04 µM) | relative viability (EHT 1864 + Luminespib; first compound 0.1265 µM) | relative viability (EHT 1864 + Luminespib; first compound 0.4 µM) | relative viability (EHT 1864 + Luminespib; first compound 1.265 µM) | relative viability (EHT 1864 + Luminespib; first compound 4 µM) | relative viability (EHT 1864 + OSI-027; first compound 0.04 µM) | relative viability (EHT 1864 + OSI-027; first compound 0.1265 µM) | relative viability (EHT 1864 + OSI-027; first compound 0.4 µM) | relative viability (EHT 1864 + OSI-027; first compound 1.265 µM) | relative viability (EHT 1864 + OSI-027; first compound 4 µM) | relative viability (EHT 1864 + Lapatinib; first compound 0.04 µM) | relative viability (EHT 1864 + Lapatinib; first compound 0.1265 µM) | relative viability (EHT 1864 + Lapatinib; first compound 0.4 µM) | relative viability (EHT 1864 + Lapatinib; first compound 1.265 µM) | relative viability (EHT 1864 + Lapatinib; first compound 4 µM) | relative viability (EHT 1864 + Linsitinib; first compound 0.04 µM) | relative viability (EHT 1864 + Linsitinib; first compound 0.1265 µM) | relative viability (EHT 1864 + Linsitinib; first compound 0.4 µM) | relative viability (EHT 1864 + Linsitinib; first compound 1.265 µM) | relative viability (EHT 1864 + Linsitinib; first compound 4 µM)
NCI-H1666 | 1 | 1.03 | 0.877 | 0.993 | 0.968 | 0.887 | 0.691 | 0.8 | 0.81 | 0.833 | 0.822 | 0.484 | 0.584 | 0.775 | 0.841 | 0.828 | 0.74 | 0.837 | 0.73 | 0.912
NCI-H1355 | 0.711 | 0.652 | 0.691 | 0.654 | 0.699 | 0.417 | 0.289 | 0.409 | 0.397 | 0.396 | 1.02 | 0.819 | 0.889 | 1.02 | 1.04 | 0.781 | 0.667 | 0.718 | 0.72 | 0.77
HCC-827 | 0.517 | 0.427 | 0.465 | 0.487 | 0.588 | 0.733 | 0.646 | 0.732 | 0.7 | 0.657 | 0.233 | 0.204 | 0.219 | 0.164 | 0.191 | 0.953 | 0.858 | 1.01 | 0.926 | 0.876
HARA | 0.738 | 0.68 | 0.75 | 0.644 | 0.719 | 0.433 | 0.201 | 0.516 | 0.454 | 0.435 | 0.718 | 0.702 | 0.688 | 0.706 | 0.758 | 0.963 | 0.928 | 1.08 | 0.983 | 1.01
NCI-H322M | 0.877 | 0.859 | 0.955 | 0.529 | 1.06 | 0.591 | 0.444 | 0.535 | 0.585 | 0.533 | 0.613 | 0.527 | 0.634 | 0.522 | 0.629 | 0.89 | 0.806 | 0.98 | 0.878 | 0.968
NCI-H2347 | 0.859 | 0.47 | 0.401 | – | 0.745 | 0.389 | 0.369 | 0.442 | – | 0.396 | 0.961 | 0.638 | 0.814 | 0.793 | 1.12 | 0.92 | 0.741 | 0.95 | 0.941 | 0.999
NCI-H1975 | 0.143 | 0.284 | 0.201 | 0.155 | 0.199 | 0.709 | 0.668 | 0.667 | – | 0.591 | 0.868 | 0.9 | 0.802 | 0.837 | 0.856 | 0.956 | 0.967 | 0.955 | 0.811 | 0.835
UMC-11 | 1.03 | 0.925 | – | 1.02 | 1.12 | 0.463 | 0.366 | – | 0.483 | 0.47 | 0.724 | – | 1.05 | 0.938 | 0.987 | 1.02 | 0.978 | 0.986 | 0.962 | 0.963
ABC-1 | 0.816 | – | 0.48 | 0.387 | 0.422 | 0.469 | 0.504 | 0.48 | 0.513 | 0.436 | 1.06 | 1.15 | 0.949 | 0.729 | 1.15 | 0.769 | 0.797 | 0.73 | 0.718 | 0.555
A-427 | 0.876 | 0.952 | 0.899 | 0.942 | 0.906 | 0.524 | 0.345 | 0.503 | 0.447 | 0.469 | 1.09 | 1.06 | 1 | 1.09 | 1.07 | 1.09 | 1.18 | 1.15 | 1.11 | 1.13
LCLC-97TM1 | 0.701 | 0.517 | 0.772 | 0.718 | 0.784 | 0.429 | 0.583 | 0.339 | 0.568 | 0.517 | 1.03 | – | 0.527 | 1.22 | 1.12 | 0.202 | – | 0.148 | 0.168 | 0.233
HCC-15 | 0.451 | – | 0.24 | 0.369 | 0.251 | 0.608 | – | 0.704 | 0.66 | 0.615 | 0.859 | 0.61 | 0.872 | 0.76 | 0.873 | 0.877 | 0.827 | 0.888 | 0.86 | 0.922
NCI-H647 | 0.196 | 0.213 | 0.126 | 0.102 | 0.111 | 0.622 | 0.368 | 0.598 | 0.738 | 0.621 | 0.856 | 0.842 | 0.923 | 0.957 | 1.14 | 1.03 | 1.13 | 1.2 | 1.15 | 0.983
SW 1573 | 0.24 | 0.356 | 0.31 | 0.215 | 0.187 | 0.592 | 0.54 | 0.605 | 0.482 | 0.55 | 1.22 | 0.912 | 1.12 | 1.03 | 1.06 | 0.923 | 0.943 | 0.812 | 0.814 | 0.709
NCI-H1651 | 0.694 | 0.907 | 0.803 | 0.704 | 0.57 | 0.704 | 0.675 | 0.75 | 0.647 | 0.69 | 0.856 | 0.788 | 0.843 | 0.824 | 0.912 | 1.07 | 0.885 | 0.992 | 0.931 | 0.996
NCI-H1792 | 0.393 | – | 0.376 | 0.361 | 0.533 | 0.67 | 0.65 | 0.717 | 0.689 | 0.68 | 0.864 | 0.777 | 0.926 | 0.882 | 0.928 | 0.514 | 0.376 | 0.556 | 0.57 | 0.628
